# Reference: ChEMBL document CHEMBL1275450, “Posaconazole enhances the activity of amphotericin B against hyphae of zygomycetes in vitro” (2008)
# Assays:
# Assay type in all cases: functional
# Lichtheimia corymbifera [1] = test: Antimicrobial activity against Absidia corymbifera conidia after 24 hrs by AFST-EUCAST method
# Rhizopus [2] = test: Antimicrobial activity against Rhizopus spp. conidia after 24 hrs by AFST-EUCAST method
# Rhizomucor [3] = test: Antimicrobial activity against Rhizomucor spp. conidia after 24 hrs by AFST-EUCAST method
# Mucor [4] = test: Antimicrobial activity against Mucor spp. conidia after 24 hrs by AFST-EUCAST method
# [5] = test system: Syncephalastrum racemosum; test: Antimicrobial activity against Syncephalastrum racemosum conidia after 24 hrs by AFST-EUCAST method
# [6] = test system: Cunninghamella bertholletiae; test: Antimicrobial activity against Cunninghamella bertholletiae conidia after 24 hrs by AFST-EUCAST method
# Lichtheimia corymbifera [7] = test: Antimicrobial activity against Absidia corymbifera hyphae after 24 hrs by AFST-EUCAST method
# Rhizopus [8] = test: Antimicrobial activity against Rhizopus spp. hyphae after 24 hrs by AFST-EUCAST method
# Rhizomucor [9] = test: Antimicrobial activity against Rhizomucor spp. hyphae after 24 hrs by AFST-EUCAST method
# Mucor [10] = test: Antimicrobial activity against Mucor spp. hyphae after 24 hrs by AFST-EUCAST method
# [11] = test system: Syncephalastrum racemosum; test: Antimicrobial activity against Syncephalastrum racemosum hyphae after 24 hrs by AFST-EUCAST method
# [12] = test system: Cunninghamella bertholletiae; test: Antimicrobial activity against Cunninghamella bertholletiae hyphae after 24 hrs by AFST-EUCAST method
# Rhizomucor [13] = test: Antimicrobial activity against Rhizomucor spp. conidia after 24 hrs by XTT method in presence of amphotericin B
# [14] = test system: Cunninghamella bertholletiae; test: Antimicrobial activity against Cunninghamella bertholletiae conidia after 24 hrs by XTT method in presence of amphotericin B
# Mucor [15] = test: Antimicrobial activity against Mucor spp. conidia after 24 hrs by XTT method in presence of amphotericin B
# Rhizopus arrhizus [16] = test: Antimicrobial activity against Rhizopus oryzae conidia after 24 hrs by XTT method in presence of amphotericin B
# [17] = Antimicrobial activity against Rhizopus microsporus conidia after 24 hrs by XTT method in presence of amphotericin B
# Lichtheimia corymbifera [18] = test: Antimicrobial activity against Absidia corymbifera conidia after 24 hrs by XTT method in presence of amphotericin B
# [19] = test system: Syncephalastrum racemosum; test: Antimicrobial activity against Syncephalastrum racemosum conidia after 24 hrs by XTT method in presence of amphotericin B
# Rhizomucor [20] = test: Antimicrobial activity against Rhizomucor spp. hyphae after 24 hrs by XTT method in presence of amphotericin B
# [21] = test system: Cunninghamella bertholletiae; test: Antimicrobial activity against Cunninghamella bertholletiae hyphae after 24 hrs by XTT method in presence of amphotericin B
# Mucor [22] = test: Antimicrobial activity against Mucor spp. hyphae after 24 hrs by XTT method in presence of amphotericin B
# Rhizopus arrhizus [23] = test: Antimicrobial activity against Rhizopus oryzae hyphae after 24 hrs by XTT method in presence of amphotericin B
# [24] = Antimicrobial activity against Rhizopus microsporus hyphae after 24 hrs by XTT method in presence of amphotericin B
# Lichtheimia corymbifera [25] = test: Antimicrobial activity against Absidia corymbifera hyphae after 24 hrs by XTT method in presence of amphotericin B
# [26] = test system: Syncephalastrum racemosum; test: Antimicrobial activity against Syncephalastrum racemosum hyphae after 24 hrs by XTT method in presence of amphotericin B
Structure (SMILES),MIC (Lichtheimia corymbifera [1]) [µg/mL],MIC (Rhizopus [2]) [µg/mL],MIC (Rhizomucor [3]) [µg/mL],MIC (Mucor [4]) [µg/mL],MIC [5] [µg/mL],MIC [6] [µg/mL],MIC (Lichtheimia corymbifera [7]) [µg/mL],MIC (Rhizopus [8]) [µg/mL],MIC (Rhizomucor [9]) [µg/mL],MIC (Mucor [10]) [µg/mL],MIC [11] [µg/mL],MIC [12] [µg/mL],further results
C[C@@H]1[C@H](O)[C@@H](C)/C=C/C=C/C=C/C=C/C=C/C=C/C=C/[C@H](O[C@@H]2O[C@H](C)[C@@H](O)[C@H](N)[C@@H]2O)C[C@@H]2O[C@](O)(C[C@@H](O)C[C@@H](O)[C@H](O)CC[C@@H](O)C[C@@H](O)CC(=O)O[C@H]1C)C[C@H](O)[C@H]2C(=O)O [AMPHOTERICIN B],0.5,0.5,0.5,0.5,0.5,0.5,1,1,1,1,1,1,–
CC[C@@H]([C@H](C)O)n1ncn(-c2ccc(N3CCN(c4ccc(OC[C@@H]5CO[C@@](Cn6cncn6)(c6ccc(F)cc6F)C5)cc4)CC3)cc2)c1=O [POSACONAZOLE],0.25,0.25,0.25,0.25,0.25,0.25,1,1,1,1,1,1,fractional inhibitory concentration index (FICI) (Rhizomucor [13]): 0.5; fractional inhibitory concentration index (FICI) [14]: 1.1; fractional inhibitory concentration index (FICI) (Mucor [15]): 1.25; fractional inhibitory concentration index (FICI) (Rhizopus arrhizus [16]): 0.75; fractional inhibitory concentration index (FICI) [17]: 0.37; fractional inhibitory concentration index (FICI) (Lichtheimia corymbifera [18]): 0.75; fractional inhibitory concentration index (FICI) [19]: 1; fractional inhibitory concentration index (FICI) (Rhizomucor [20]): 0.75; fractional inhibitory concentration index (FICI) [21]: 0.5; fractional inhibitory concentration index (FICI) (Mucor [22]): 0.5; fractional inhibitory concentration index (FICI) (Rhizopus arrhizus [23]): 1; fractional inhibitory concentration index (FICI) [24]: 0.37; fractional inhibitory concentration index (FICI) (Lichtheimia corymbifera [25]): 0.37; fractional inhibitory concentration index (FICI) [26]: 0.6
